What was measured:
[1] = biological target: T1, LBP-8 (Caenorhabditis elegans, UniProt O02324); experiment: fluorescence displacement of […],8-ANS; assay type: binding
T1 sequence (O02324 1-137): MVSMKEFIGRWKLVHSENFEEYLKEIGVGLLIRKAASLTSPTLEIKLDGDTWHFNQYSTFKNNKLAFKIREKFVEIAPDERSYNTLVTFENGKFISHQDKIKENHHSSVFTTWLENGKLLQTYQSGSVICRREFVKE

[2] = biological target: T2, NHR-80 (Caenorhabditis elegans, UniProt Q8ITW8); experiment: intrinsic fluorescence quenching of GST-NHR-80 with increasing OEA; assay type: binding
T2 sequence (Q8ITW8 1-504): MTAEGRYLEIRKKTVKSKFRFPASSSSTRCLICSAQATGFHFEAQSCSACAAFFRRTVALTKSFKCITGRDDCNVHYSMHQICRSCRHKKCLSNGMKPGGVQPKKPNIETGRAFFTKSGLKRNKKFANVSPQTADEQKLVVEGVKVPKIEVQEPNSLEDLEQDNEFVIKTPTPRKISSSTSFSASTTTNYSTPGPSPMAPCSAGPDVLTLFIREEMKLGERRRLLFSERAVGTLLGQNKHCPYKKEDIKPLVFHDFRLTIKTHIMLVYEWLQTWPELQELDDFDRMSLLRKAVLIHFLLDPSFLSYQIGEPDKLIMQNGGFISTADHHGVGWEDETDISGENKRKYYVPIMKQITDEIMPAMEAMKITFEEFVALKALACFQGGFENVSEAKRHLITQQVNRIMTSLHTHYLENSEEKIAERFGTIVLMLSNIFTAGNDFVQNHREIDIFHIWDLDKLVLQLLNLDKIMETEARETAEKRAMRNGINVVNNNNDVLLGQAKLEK

SMILES | fluorescence displacement of 1,8-ANS [1] | Kd [2] [µM]
CCCCC/C=C\C/C=C\C/C=C\C/C=C\CCCC(=O)O [AA, arachidonic acid] | In fluorescence-based binding assays, all four lipids bound to LBP-8 | 
CCCCC/C=C\C/C=C\C/C=C\CCCCCCC(=O)O [DGLA, dihomo-γ-linolenic acid] | In fluorescence-based binding assays, all four lipids bound to LBP-8 | 
CCCCCCCC/C=C\CCCCCCCC(=O)NCCO [OEA, oleoylethanolamide] |  | 7.84
CC/C=C\C/C=C\C/C=C\C/C=C\CCCCCCC(=O)O [ω-3 AA, ω-3 arachidonic acid] | In fluorescence-based binding assays, all four lipids bound to LBP-8 | 

— paper PMC4425353 (Science (New York, N.Y.), 2015)
